Measured values from patent publication US6737383B1, “Herbicidal oxadiazolidines” (priority 1999, dated 2004).

Assays:
sandbur = test: Test D sandbur; assay type: in vivo, Cenchrus echinatus; conditions: Preemergence, 0 to 100 scale
Method in brief: (§1)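 Values are visual plant-response ratings (0 no injury, 100 complete control) recorded 14 to 21 days after herbicide treatment, using a non-phytotoxic solvent mixture containing surfactant. Preemergence applications went to the surface of pots holding freshly sown seed in sandy loam.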

Johnson grass = test: Test D Johnson grass; assay type: in vivo, Sorghum halepense; conditions: Preemergence, 0 to 100 scale
Method in brief: as §1

common ragweed [1] = test: Test D common ragweed; assay type: in vivo, Ambrosia elatior; conditions: Preemergence, 0 to 100 scale
Method in brief: as §1

surinam grass = test: Test D surinam grass; assay type: in vivo, Brachiaria decumbens; conditions: Preemergence, 0 to 100 scale
Method in brief: as §1

dallisgrass = test: Test D dallisgrass; assay type: in vivo, Paspalum dilatatum; conditions: Preemergence, 0 to 100 scale
Text: (§2) Seeds, tubers, or plant parts of Alexandergrass (Brachiaria plantaginea), bermuda-grass (Cynodon dactylon), common pursiane (Portulaca oleracea), common ragweed (Ambrosia elatior), common groundsel (Senecio vulgaris), dallisgrass (Paspalum dilatatum), goosegrass (Eleusine indica), guineagrass (Panicum maximum), itchgrass (Rottboellia exaltata), Johnson grass (Sorghum halepense), large crabgrass (Digitaria sanguinalis), pitted morningglory (Ipomoea lacunosa), purple nutsedge (Cyperus rotundus), sandbur (Cenchrus echinatus), sourgrass (Trichachne insularis), Spanishneedles (Bidens bipinnata), surinam grass (Brachiaria decumbens) and tall mallow (Malva sylvestris) were planted into greenhouse pots of flats containing greenhouse planting medium. Plant species were grown in separate pots or individual compartments. Preemergence applications were made within one day of planting the seed or plant part.
(§3) Test chemicals were formulated in a non-phytotoxic solvent mixture which included a surfactant and applied preemergence to the surface of the pot containing seeds in a sandy loam soil. Untreated control pots and treated pots were placed in the greenhouse for growth and visually evaluated for injury 14 to 21 days after herbicide application. Plant response ratings, summarized in Table C, are based on a 0 to 100 scale where 0 is no injury and 100 is complete control. A dash (−) response means no test result.

pitted morningglory = test: Test D pitted morningglory; assay type: in vivo, Ipomoea lacunosa; conditions: Preemergence, 0 to 100 scale
Method in brief: as §1

large crabgrass = test: Test D large crabgrass; assay type: in vivo, Digitaria sanguinalis; conditions: Preemergence, 0 to 100 scale
Method in brief: as §1

guineagrass = test: Test D guineagrass; assay type: in vivo, Panicum maximum; conditions: Preemergence, 0 to 100 scale
Text: as §2, §3

Spanishneedles = test: Test D Spanishneedles; assay type: in vivo, Bidens bipinnata; conditions: Preemergence, 0 to 100 scale
Text: as §2, §3

itchgrass = test: Test D itchgrass; assay type: in vivo, Rottboellia exaltata; conditions: Preemergence, 0 to 100 scale
Method in brief: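 Scoring used a 0–100 visual injury scale, with 0 meaning no effect and 100 complete control, assessed 14–21 days after application alongside untreated pots. Preemergence treatments went onto sandy loam surfaces of separately potted seeds within a day of sowing.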

bermuda-grass = test: Test D bermudagrass; assay type: in vivo, Cynodon dactylon; conditions: Preemergence, 0 to 100 scale
Method in brief: as §1

common pursiane = test: Test D common purslane; assay type: in vivo, Portulaca oleracea; conditions: Preemergence, 0 to 100 scale
Method in brief: as §1

common ragweed [2] = test: Test D common ragweed; assay type: in vivo, Ambrosia elatior; conditions: Postemergence, 0 to 100 scale
[3] = Rate 16 g/ha, 0 no injury, 100 complete control
[4] = Rate 32 g/ha, 0 no injury, 100 complete control
[5] = Rate 64 g/ha, 0 no injury, 100 complete control
[6] = Rate 125 g/ha, 0 no injury, 100 complete control

Cc1ccccc1-n1c(=O)on(C(=O)N(c2ccc(F)cc2)C(C)C)c1=O [Compound 4]
40: Spanishneedles plant response rating (Spanishneedles; [6])
30: Sandbur plant response rating (sandbur; [6]) | Plant response rating, Johnsongrass (Johnson grass; [5]) | Plant response rating, Johnsongrass (Johnson grass; Rate 250 g/ha) | Plant response rating, Johnsongrass (Johnson grass; Rate 500 g/ha) | Plant response rating, Bermudagrass (bermuda-grass; [6])
65: Sandbur plant response rating (sandbur; [5]) | Surinam grass plant response rating (surinam grass; [5])
75: Plant response rating, Dallisgrass (dallisgrass; [3]) | Plant response rating, Itchgrass (itchgrass; [5])
98: Plant response rating, Surinam grass (surinam grass; Rate 500 g/ha) | Plant response rating, Dallisgrass (dallisgrass; [6]) | Plant response rating, Dallisgrass (dallisgrass; Rate 250 g/ha) | Plant response rating, Dallisgrass (dallisgrass; Rate 500 g/ha) | Plant response rating, Large crabgrass (large crabgrass; [5]) | Plant response rating, Bermudagrass (bermuda-grass; Rate 250 g/ha) | Plant response rating, Bermudagrass (bermuda-grass; Rate 500 g/ha)
50: Plant response rating, Guineagrass (guineagrass; [5])
90: Plant response rating, Sandbur (sandbur; Rate 250 g/ha) | Surinam grass plant response rating (surinam grass; [6]) | Plant response rating, Dallisgrass (dallisgrass; [5]) | Plant response rating, Guineagrass (guineagrass; [6])
85: Plant response rating, Surinam grass (surinam grass; Rate 250 g/ha) | Plant response rating, Dallisgrass (dallisgrass; [4])
80: Plant response rating, Itchgrass (itchgrass; Rate 250 g/ha) | Plant response rating, Itchgrass (itchgrass; Rate 500 g/ha)
20: Plant response rating, Guineagrass (guineagrass; [3]) | Plant response rating, Guineagrass (guineagrass; [4])
0: Plant response rating, Sandbur (sandbur; [3]) | Plant response rating, Sandbur (sandbur; [4]) | Plant response rating, Johnsongrass (Johnson grass; [3]) | Plant response rating, Johnsongrass (Johnson grass; [4]) | Plant response rating, Johnsongrass (Johnson grass; [6]) | Plant response rating, C. ragweed (common ragweed [1]; [3]) | Plant response rating, C. ragweed (common ragweed [1]; [4]) | Plant response rating, C. ragweed (common ragweed [1]; [5]) | Plant response rating, C. ragweed (common ragweed [1]; [6]) | Plant response rating, C. ragweed (common ragweed [1]; Rate 250 g/ha) | Plant response rating, C. ragweed (common ragweed [1]; Rate 500 g/ha) | Plant response rating, Surinam grass (surinam grass; [3]) | Plant response rating, Surinam grass (surinam grass; [4]) | Plant response rating, P. morninglory (pitted morningglory; [3]) | Plant response rating, P. morninglory (pitted morningglory; [4]) | Plant response rating, P. morninglory (pitted morningglory; [5]) | Plant response rating, P. morninglory (pitted morningglory; [6]) | Plant response rating, P. morninglory (pitted morningglory; Rate 250 g/ha) | Plant response rating, P. morninglory (pitted morningglory; Rate 500 g/ha) | Plant response rating, Spanishneedles (Spanishneedles; [3]) | Spanishneedles plant response rating (Spanishneedles; [5]) | Plant response rating, Spanishneedles (Spanishneedles; Rate 500 g/ha) | Plant response rating, Itchgrass (itchgrass; [3]) | Plant response rating, Itchgrass (itchgrass; [4]) | Plant response rating, Itchgrass (itchgrass; [6]) | Plant response rating, Bermudagrass (bermuda-grass; [3]) | Plant response rating, Bermudagrass (bermuda-grass; [4]) | Plant response rating, Bermudagrass (bermuda-grass; [5]) | Plant response rating, C. purslane (common pursiane; [3]) | Plant response rating, C. purslane (common pursiane; [4]) | Plant response rating, C. purslane (common pursiane; [5]) | Plant response rating, C. purslane (common pursiane; [6]) | Plant response rating, C. purslane (common pursiane; Rate 250 g/ha) | Plant response rating, C. purslane (common pursiane; Rate 500 g/ha)
100: Plant response rating, Sandbur (sandbur; Rate 500 g/ha) | Plant response rating, Large crabgrass (large crabgrass; [3]) | Plant response rating, Large crabgrass (large crabgrass; [4]) | Plant response rating, Large crabgrass (large crabgrass; [6]) | Plant response rating, Large crabgrass (large crabgrass; Rate 250 g/ha) | Plant response rating, Large crabgrass (large crabgrass; Rate 500 g/ha) | Plant response rating, Guineagrass (guineagrass; Rate 250 g/ha) | Plant response rating, Guineagrass (guineagrass; Rate 500 g/ha)

CC(C)Cn1c(=O)on(C(=O)N(c2ccc(F)cc2)C(C)C)c1=O [Compound 169]
0: Plant response rating, C. ragweed (common ragweed [2]; [5])

CC(C)N(C(=O)n1oc(=O)n(C2CC2)c1=O)c1ccc(Cl)cc1 [Compound 241]
0: Plant response rating, C. ragweed (common ragweed [2]; [3]) | Plant response rating, C. ragweed (common ragweed [2]; [4])
100: Plant response rating, C. ragweed (common ragweed [2]; [6]) | Plant response rating, C. ragweed (common ragweed [2]; Rate 250 g/ha)
20: Plant response rating, C. ragweed (common ragweed [2]; [5])

CC(C)N(C(=O)n1oc(=O)n(C2CCC2)c1=O)c1ccccc1 [Compound 348]
20: Plant response rating, C. ragweed (common ragweed [2]; Rate 250 g/ha)
0: Plant response rating, C. ragweed (common ragweed [2]; [3]) | Plant response rating, C. ragweed (common ragweed [2]; [4]) | Plant response rating, C. ragweed (common ragweed [2]; [5]) | Plant response rating, C. ragweed (common ragweed [2]; [6])

CC(C)N(C(=O)n1oc(=O)n(C2CCC2)c1=O)c1ccc(Cl)cc1 [Compound 349]
0: Plant response rating, C. ragweed (common ragweed [2]; [3]) | Plant response rating, C. ragweed (common ragweed [2]; [4]) | Plant response rating, C. ragweed (common ragweed [2]; [5]) | Plant response rating, C. ragweed (common ragweed [2]; [6])
20: Plant response rating, C. ragweed (common ragweed [2]; Rate 250 g/ha)
